{"source": "patent US8198099B2", "about": "“Mechanism to signal receptor-ligand interactions with luminescent quantum dots” (The University of Miami, priority 2006, dated 2012)", "key": {"[1]": {"assay": "Control: receptor added to quantum dots without bipyridinium quenchers", "conditions": "in the absence of bipyridinium quenchers"}, "[2]": {"assay": "Stern-Volmer quenching of quantum dot luminescence by bipyridinium quenchers", "format": "binding", "conditions": "for Stern-Volmer constant: linear (static) region of plot, quantum dots 1.5 μM, sodium phosphate buffer, pH=7.8, 20° C., λEx=350 nm", "method": "(§1) The emission spectra (λEx=350 nm) of the same solution were recorded before (b) and after the consecutive addition of 1 (c, 4.1 μM) and 3 (d, 21 μM). Also shown is a Stern-Volmer plot (e) of hydrophilic CdSe—ZnS core-shell quantum dots (1.5 μM, sodium phosphate buffer, pH=7.8, 20° C., λEx=350 nm) upon addition of increasing amounts of 1.\n(§2) Also shown is a Stern-Volmer plot (d) of hydrophilic CdSe—ZnS core-shell quantum dots (1.5 μM, sodium phosphate buffer, pH=7.8, 20° C., λEx=350 nm) after addition of increasing amounts of 2.\nIndeed, bipyridinium dications are known to accept electrons from excited CdSe and CdSe—ZnS core-shell quantum dots, quenching their luminescence.36-37 The corresponding Stern-Volmer plot (e in FIG. 2) deviated from linearity at quencher concentrations greater than about 2.5 μM. […] These observations are consistent with the adsorbance of the dicationic quencher on the surface of the hydrophilic quantum dots as a result of electrostatic interactions with their anionic carboxylate groups.\nIn order to test the potential of our operating principles to signal receptor-ligand interactions, we designed a compound (2 in FIG. 3) integrating a bipyridinium quencher and a biotin ligand within the same molecular skeleton and prepared this molecule in two synthetic steps (see FIG. 6). Once again, the luminescence of the hydrophilic quantum dots decreases upon exposure to 2 (a and b in FIG. 7) (the addition of either 1 or 2 to a solution of the quantum dots has no influence on the visible region of the absorption spectrum). […]\n(§3) Methods. […] Infrared absorption spectra were recorded with a Perkin-Elmer Spectrum One Fourier transform spectrometer. Visible absorption spectra were recorded with a Varian Cary 100 Bio spectrometer, using quartz cells with a path length of 0.5 cm. Emission spectra were recorded with a Varian Cary Eclipse spectrometer in aerated solutions. Fast atom bombardment mass spectra (FABMS) were recorded with a VG Mass Lab Trio-2 in a 3-nitrobenzyl alcohol matrix. […]"}, "[3]": {"assay": "Luminescence restoration on adding excess macrocyclic receptor 3 to quantum dots and quencher 1", "format": "binding", "conditions": "quantum dots 1.5 μM, 1 4.1 μM, 3 21 μM, pH=7.8, 20° C.", "method": "as §1\nThe change imposed on the luminescence of the hydrophilic quantum dots by the quencher 1 can be reversed with the addition of an excess of cucurbituril (3 in FIG. 3). Indeed, this particular macrocyclic receptor is known to bind bipyridinium dications with high association constants in aqueous solutions.^36-39 Consistently, the emission spectrum (d in FIG. 2) recorded in the presence of an excess of 3 relative to 1 closely resembles the one recorded before the addition of 1 (b). The infrared spectra recorded before (b in FIG. 4) and after (c in FIG. 4) treatment of the CdSe—ZnS core-shell quantum dots with mercaptoacetic acid and potassium hydroxide show the disappearance of the [C—H] stretching vibrations at 2800 cm^−1 to […] (a) for hydrophobic ligands and the appearance of the [C═O] stretching vibrations at 1300 cm^−1 to 1700 cm^−1 (d) for the hydrophilic ones. […] In principle, the very same mechanism can be adapted to signal receptor-ligand interactions with changes in luminescence. […]"}, "streptavidin": {"biological_target": "T1, streptavidin (Streptomyces avidinii, UniProt P22629)", "T1 construct": "purchased", "T1 sequence (P22629 25-183, species assumed)": "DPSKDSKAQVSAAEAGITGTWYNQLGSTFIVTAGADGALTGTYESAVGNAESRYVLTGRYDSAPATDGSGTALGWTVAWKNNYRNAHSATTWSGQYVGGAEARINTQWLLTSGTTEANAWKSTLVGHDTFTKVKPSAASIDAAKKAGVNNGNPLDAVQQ", "assay": "Luminescence enhancement on adding streptavidin to quantum dots and quencher-biotin 2", "format": "binding", "conditions": "quantum dots 1.5 μM, 2 4.1 μM, streptavidin 21 μM (large excess), pH=7.8, 20° C.", "method": "as §2\n(§4) The addition of increasing amounts of streptavidin to a mixture of the hydrophilic quantum dots and 2 leads to a luminescence enhancement (c in FIG. 7). The addition of 3, streptavidin or bovine serum albumin to a solution of the hydrophilic quantum dots has no influence on the emission spectrum in the absence of bipyridinium quenchers. Instead, the addition of bovine serum albumin has no influence of the emission spectrum under otherwise identical conditions (FIG. 8). […] The luminescence increases only by 30% after the association of 2 and streptavidin, while it grows by 80% after the interaction of 1 and 3. […] Presumably, an adjustment in the length of the aliphatic spacer connecting the quencher to the ligand in 2 can be invoked to improve the luminescence enhancement upon streptavidin binding.\nas §3, with “solutions.” for “solutions. Fast atom bombardment mass spectra (FABMS) were recorded with a VG Mass Lab Trio-2 in a 3-nitrobenzyl alcohol matrix.”"}, "bovine serum albumin": {"biological_target": "T2, bovine serum albumin (Bos taurus, UniProt P02769)", "T2 construct": "purchased", "T2 sequence (P02769 25-607)": "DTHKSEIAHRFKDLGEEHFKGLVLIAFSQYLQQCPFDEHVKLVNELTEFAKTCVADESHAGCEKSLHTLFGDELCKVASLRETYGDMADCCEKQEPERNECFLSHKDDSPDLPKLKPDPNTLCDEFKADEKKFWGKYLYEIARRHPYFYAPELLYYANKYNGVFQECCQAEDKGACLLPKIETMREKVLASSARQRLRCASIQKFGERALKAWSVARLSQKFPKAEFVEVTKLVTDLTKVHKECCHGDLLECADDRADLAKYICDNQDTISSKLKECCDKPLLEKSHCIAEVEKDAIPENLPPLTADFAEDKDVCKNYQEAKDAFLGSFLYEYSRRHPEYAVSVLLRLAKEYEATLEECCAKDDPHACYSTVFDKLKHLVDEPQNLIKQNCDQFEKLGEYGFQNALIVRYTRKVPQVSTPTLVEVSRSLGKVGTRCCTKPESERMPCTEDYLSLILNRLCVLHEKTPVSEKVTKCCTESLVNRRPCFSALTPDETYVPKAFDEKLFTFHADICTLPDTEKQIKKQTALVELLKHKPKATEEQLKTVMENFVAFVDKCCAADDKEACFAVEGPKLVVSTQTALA", "assay": "Specificity control: bovine serum albumin added to quantum dots and 2", "format": "binding", "conditions": "quantum dots 1.5 μM, 2 4.1 μM, bovine serum albumin 7.4 μM, pH=7.8, 20° C.", "source_text": "as §4\nMethods. […] Infrared absorption spectra were recorded with a Perkin-Elmer Spectrum One Fourier transform spectrometer. Visible absorption spectra were recorded with a Varian Cary 100 Bio spectrometer, using quartz cells with a path length of 0.5 cm. Emission spectra were recorded with a Varian Cary Eclipse spectrometer in aerated solutions. Fast atom bombardment mass spectra (FABMS) were recorded with a VG Mass Lab Trio-2 in a 3-nitrobenzyl alcohol matrix. Nuclear magnetic resonance (NMR) spectra were recorded with Bruker Avance 400 and 500 spectrometers."}}, "data": [{"compound": "O=C1N2CN3C(=O)N4CN5C(=O)N6CN7C(=O)N8CN9C(=O)N%10CN%11C(=O)N%12CN1C1C2N2CN%13C(=O)N(CN%14C(=O)N(CN%15C(=O)N(CN%16C(=O)N(CN%17C(=O)N(CN1C2=O)C%12C%11%17)C%10C9%16)C8C7%15)C6C5%14)C4C3%13", "note": "(stereo not drawn) [compound 3, cucurbituril, reference compound]", "values": [{"measurement": "effect on the emission spectrum of the quantum dots", "setting": "[1]", "value": "no influence"}]}, {"compound": "C[n+]1ccc(-c2cc[n+](C)cc2)cc1", "note": "[compound 1, methyl viologen, reference compound]", "values": [{"measurement": "Stern-Volmer constant", "setting": "[2]", "value": "about 0.45 μM^−1"}, {"measurement": "luminescence increase after interaction with 3", "setting": "[3]", "value": 80, "unit": "%"}]}, {"compound": "streptavidin: protein receptor that binds the biotin ligand of 2", "values": [{"measurement": "effect on the emission spectrum of the quantum dots", "setting": "[1]", "value": "no influence"}]}, {"compound": "C[n+]1ccc(-c2cc[n+](CCCOCCCCCC3SCC4NC(=O)NC43)cc2)cc1.[I-].[I-]", "note": "(stereo not drawn) [compound 2, 1-Methyl-1′-(3-(5-(2-Oxohexahydrothieno[3,4-d]imidazol-6-yl)-pentanoxy)-propyl)-4,4′-Bipyridinium Bisiodide]", "values": [{"measurement": "Stern-Volmer constant", "setting": "[2]", "value": "about 0.22 μM^−1"}, {"measurement": "decrease in the Stern-Volmer constant relative to 1", "setting": "[2]; same conditions as the Stern-Volmer plots", "value": "about 0.23 μM^−1"}, {"measurement": "luminescence increase after association with streptavidin", "setting": "streptavidin", "value": 30, "unit": "%"}, {"measurement": "effect of bovine serum albumin on the emission spectrum", "setting": "bovine serum albumin", "value": "no influence"}]}, {"compound": "bovine serum albumin: control protein that does not bind biotin", "values": [{"measurement": "effect on the emission spectrum of the quantum dots", "setting": "[1]", "value": "no influence"}]}]}
